From US9138433B2, “Indole alkaloid compounds as melanogenesis promoters and uses thereof” (NEW YORK UNIVERSITY, priority 2010, dated 2015)

What was measured:
[1] = system: Asian skin equivalent (MEL-A); test: MelanoDerm pigmentation assay, Asian skin equivalent (MEL-A); format: cell-based, human
Description: MelanoDerm™, made by MatTek Corp., is a viable reconstituted three-dimensional human skin equivalent containing normal melanocytes and keratinocytes that are derived from African-American (MEL-B), Asian (MEL-A) or Caucasian (MEL-C) donors. Both MEL-A and MEL-B tissues were used in the current study, and they were maintained in the NMM-113 medium as recommended by the manufacturer.
Pubescine (from Sigma) was dissolved in 30% ethanol: 70% propylene glycol to a final concentration of 1.0 mM (equal to 356.6 μg/ml), and this was maintained constant and used on all samples tested. A 25 μl of its aliquot was applied topically to the MelanoDerm™ tissue (MEL-B) on Days 0, 1, 3, 6, 8 and 10. The MelanoDerm™ tissues were fed every other day with 5 ml fresh NMM-113. Prior to each application, the tissues were washed with 1 ml PBS to remove any residual test compound. Tissues were fixed on Days 10 and 13 for microscopic analysis and histological evaluation. In addition, duplicate tissues were frozen on Days 10 and 13 for the melanin assay.
Similar experiments were performed on Asian skin equivalent (MEL-A) except: the treatments were applied on Days 0, 1, 3, 6, 8, 10 and 13. Tissues were taken out on Days 13 and 16 for the various assays. […]
Procedure 1: the effects of pubescine on melanin synthesis in MEL-A or B were evaluated by light microscopy (views from the top surface of the tissue). […]

melan-a cells = test: Melanin assay in cultured murine melanocytes (melan-a); format: cell-based; conditions: melanin content, 72 hours incubation
Description: The Spectrum Collection library consisting of 2000 drug compounds or natural products was screened to identify novel pigmentation inhibitors or stimulators in cultured murine melanocytes (melan-a). Compounds were dissolved in dimethylsulfoxide (DMSO) to a final concentration of 10 mM. Screening was performed with cultured melanocytes in 24-well plates followed by melanin assay (see below). A minimum change of 50% in melanin formation was established as significant for a pigmentation inhibitor or stimulator. DMSO was used as a negative control and the widely used depigmenting agent, hydroquinone, was used as a positive control on every plate. Primary screening was performed at a final concentration of 1 μM and potential candidates from the primary screening were reconfirmed in duplicate at final concentrations of 1 and 5 μM.
Melan-a cells were plated at 5×10^4 cells per well in 1 ml of culture media in 24-well plates the day before adding the library compounds. All compounds were added at the indicated final concentrations. Cells were harvested after 72 hours of incubation, and melanin assay was performed.
For further test and mechanism of action studies, the compounds were purchased from either Sigma or MicroSource. These compounds were dissolved in dimethylsulfoxide (DMSO) to a final concentration of 10 mM, and were tested for their effect on melanin synthesis at the indicated final concentrations.
For the primary and secondary screening, cells were harvested and dissolved in 200 μl of 2N NaOH in 20% DMSO at 70° C. A 180-μl aliquot of the resulting solution was measured for absorbance at 490 nm.
Cells are harvested in extraction buffer (1% Triton X-100, 50 mM Tris, 2 mM EDTA, 150 mM NaCl, pH 7.5) containing a complete protease inhibitor cocktail (Roche). The lysates were centrifuged at 14,000 rpm for 10 minutes at 4° C. BCA protein assay kit (Pierce) was used to measure the protein concentrations of the supernatants, and bovine serum albumin was used as a standard. The remaining pellets were incubated with 100 μl ethanol-ether (1:1) for 10 minutes at room temperature. After removing the ethanol-ether, the pellets were dissolved in 200 μl of 2N NaOH in 20% DMSO at 70° C. A 180-μl aliquot of the resulting solution was measured for absorbance at 490 nm. The melanin contents were normalized to the total amount of protein.

[2] = system: Tyr, Tryp-1 or Lamp-1 in melan-a cells; test: Sub-cellular localization of Tyr, Tyrp-1, Lamp-1 in melan-a cells (immunofluorescence); format: cell-based, murine; conditions: 10 μM, 72 hrs at 37° C., FIGS. 4A and 4B
Description: Cells were cultured on cover slips, incubated with or without 10 μM pubescine for 72 hrs at 37° C. The cells were fixed with −20° C. methanol for 5 min and stained by immunofluorescence with antibodies for Tyr, Tyrp-1 and/or Lamp-1. The slides were analyzed with a confocal microscope (LSM 510, Zeiss).

[3] = system: Tyr gene family proteins and gp100 in melan-a cells; test: Cellular levels of Tyr gene family proteins and gp100 in melan-a cells (immunoblot); format: cell-based, murine; conditions: various concentrations, 72 hrs, FIG. 3
Description: Melan-a cells were incubated with various concentrations of pubescine for 72 hrs. Cell lysates were prepared and separated by 7.5% sodium dodecyl sulfate-polyacrylamide gel and transferred to Immobilon-P membranes. Tyrosinase gene family proteins were detected with antibodies against each protein. The results are set forth in the gel of FIG. 3.

`COC(=O)C1=CO[C@@H](C)[C@H]2CN3CCc4c([nH]c5cc(OC)ccc45)[C@@H]3C[C@H]12` [ID 6, Pubescine] was tested, and the “Fontana-Masson staining, melanin content” value ([1]; Asian skin equivalent (MEL-A), FIG. 6) was “increase in the melanin content”, the “Melanin content increase of Asian skin equivalent (MEL-A)” value ([1]; pubescine 1.0 mM topical, 25 μl, FIG. 7) was ~40% and the % after treatment @ 1 μM (melan-a cells) was 172%. For the same compound, the % after treatment @ 5 μM (melan-a cells) was 267%, the “Sub-cellular localization of Tyr, Tryp-1 or Lamp-1” value [2] was “does not alter the sub-cellular localization” and the “Cellular levels of tyrosinase family proteins and gp100” value [3] was “increases cellular levels of tyrosinase family proteins and gp100 in a dose-dependent manner”.
With `CC[C@H]1[C@@H]2C[C@H]3[C@@H]4N(C)c5ccccc5[C@]45C[C@@H]([C@H]2[C@H]5O)N3[C@@H]1O` [ID 2, Ajmaline, reference compound] the % after treatment @ 1 μM (melan-a cells) was 117% and the % after treatment @ 5 μM (melan-a cells) was 206%.
`COC(=O)C1=CO[C@@H](C)[C@H]2CN3CCc4c([nH]c5ccccc45)[C@@H]3C[C@H]12` [ID 3, Ajmalicine, reference compound] was tested, and the % after treatment @ 1 μM (melan-a cells) was 106% and the % after treatment @ 5 μM (melan-a cells) was 133%.
`COc1ccc2c3c([nH]c2c1)[C@@H]1C[C@H]2[C@@H](C[C@@H](O)[C@H](OC)[C@H]2C(=O)O)CN1CC3` [ID 5, Reserpic Acid] was tested, and the % after treatment @ 1 μM (melan-a cells) was 111% and the % after treatment @ 5 μM (melan-a cells) was 217%.
Work on `COC(=O)[C@H]1[C@H]2C[C@H]3c4[nH]c5ccccc5c4CCN3C[C@@H]2CC[C@@H]1O` [ID 1, Corynanthine] yielded a % after treatment @ 1 μM (melan-a cells) of 111% and a % after treatment @ 5 μM (melan-a cells) of 211%.
Compound `COC(=O)[C@H]1[C@H]2C[C@@H]3c4[nH]c5cc(OC)ccc5c4CCN3C[C@H]2C[C@@H](OC(=O)c2cc(OC)c(OC)c(OC)c2)[C@@H]1OC` [ID 4, Reserpine, reference compound] has a % after treatment @ 1 μM (melan-a cells) of 117% and a % after treatment @ 5 μM (melan-a cells) of 133%.
